Assay results taken from ChEMBL document CHEMBL1127129, “N,N-disubstituted acetamidines as high affinity sigma receptor ligands” (Bioorg Med Chem Lett, 1993).

Target: Glutamate NMDA receptor
Test: The compound was evaluated for binding affinity against NMDA receptor ion-channel site using [3H]-MK 801 radioligand in rat brain membranes
Type: cell membranes

## C/C(=N\c1ccccc1C)Nc1ccccc1C
  IC50: 10 µM

## C/C(=N\C12CC3CC(CC(C3)C1)C2)Nc1ccccc1C
  IC50: 10 µM

## C/C(=N\C1CCCCC1)Nc1ccccc1C
  IC50: 10 µM

## C/C(=N\C1CC2CCC1C2)Nc1ccccc1C (configuration not stated)
  IC50: 80 µM

## C/C(=N\C1CCCCC1)NC12CC3CC(CC(C3)C1)C2
  IC50: 10 µM

## C/C(=N\C12CC3CC(CC(C3)C1)C2)NC12CC3CC(CC(C3)C1)C2
  IC50: 10 µM

## C/C(=N\c1ccc(Br)cc1C)Nc1ccc(Br)cc1C
  IC50: 9.11 µM
